Laboratory results from patent publication US11000518B2, “Use of combination of VEGFR inhibitor and PARP inhibitor in preparation of medicament for treating gastric cancer” (Jiangsu Hengrui Medicine Co., Ltd., priority 2016, dated 2021).
Where a name gives a salt, the structure may show the parent alone.

Tests used:
[1] = system: human gastric cancer PDX model STO #069; test: Efficacy on subcutaneous implantation tumor of human gastric cancer PDX model STO #069 tumor-bearing nude mice; assay type: in vivo, BALB/c nude mice
Experimental: Efficacy of the Composition of the Present Invention on the Subcutaneous Implantation Tumor of Human Gastric Cancer PDX Model STO #069 Tumor-Bearing Nude Mice
Test animals: BALB/c nude mice, 6-7 weeks old, female, purchased from Beijing Vital River Laboratory Animal Technology Co., Ltd., with laboratory animals use license No.: SCXK (Shanghai) 2015-0022 and animal certificate No.: 11400700166108, feeding condition: SPF grade.
Control group: solvent group.
Compound A: compound A (100 mg) was weighed, added with 0.5% carboxymethylcellulose solution (10 mL), vortex-mixed or ultrasonic-mixed until the solution was clear, and stored at 4° C., and the dose volume was 5 mL/kg;
Compound B: compound B (540 mg) was weighed and dissolved in purified water (31 mL), then added with 0.2% Tween 80 (0.18 mL) and 10% PEG 400 (9.0 mL), vortex-mixed until the solution was clear, followed by adding purified water to a solution volume of 90 mL and storing at 4° C., and the dose volume was 5 mL/kg;
Cisplatin: cisplatin (3 mg) was weighed and dissolved in normal saline (6.0 mL), the concentration of the solution was 0.5 mg/mL, and the solution was prepared to a total of 6.0 mL, stored at 4° C., and filtrated with a 0.22 μm Millipore Millex® membrane before each use;
Paclitaxel: paclitaxel (6 mg/mL, 1.5 mL) was formulated into a solution (1.5 mg/mL) with normal saline (6.0 mL) and stored at 4° C., which was freshly formulated before each use.
After the tumor grew to 600-700 mm^3, it was passaged in the nude mice, which were defined as passage 0 (P0); after implantation of tumor passage 0 (P0), the mice were defined as passage 1 (P1); the passage was thus defined according to the order continuously implanted in nude mice; the next passage generated from FP5 was defined as FP6, and so on; and the FP6 tumor tissue was used for this study.
(1) Tumor implantation: the STO #069 FP6 tumor tissue (which was pathologically diagnosed as gastric poorly differentiated adenocarcinoma) was cut into small pieces (˜30 mm^3), and implanted subcutaneously into the right side of the nude mice. After the mean tumor size was close to 150-250 mm^3, the mice were grouped and treated, a total of 7 groups, each group of 6 tumor-bearing mice.
(2) Observation and recording: the tumor volume was measured 2-3 times per week, the mice were weighed, and the data were recorded.
The tumor volume was measured twice a week with a caliper and measured in two dimensions, the unit is mm^3;
V=½×a×b^2, wherein a and b represented length and width, respectively.
T/C (%)=(T−T0)/(C−C0)×100%, wherein T and C represented the tumor volumes of the administration group and the solvent group at the end of the experiment, respectively; and T0 and C0 represented the tumor volumes of the administration group and the solvent group at the start of the experiment, respectively.
The endpoint of the experiment: The endpoint of the efficacy study was set to 21 days. If the tumor volume>2000 mm^3, or if a nude mouse lost more than 20% of its weight or was very ill and cannot get enough food or water, the nude mouse would be removed from the experimental group and euthanized.

[2] = system: advanced prostate cancer patients with DNA repair gene mutations; settings: phase II clinical trial; cited from earlier work
[3] = D 21, compound A 50 mg/kg PO QD × 21, compound B 30 mg/kg PO BID × 21, cisplatin 5 mg/kg IP QW × 3, paclitaxel 15 mg/kg IP QW × 3

| Compound | Partial regression ([1]; 6 animals per group, same doses as TGI column) | Mean tumor volume (mm^3) (Mean ± SEM) D 0 ([1]; D 0 = first administration time (baseline), STO#069 nude mice, n = 6) | % T/C D 21 [1, 3] [%] | % tumor growth inhibition (TGI) D 21 [1, 3] [%] | Mean tumor volume (mm^3) (Mean ± SEM) D 21 [1, 3] | tumor inhibition rate ([1]; Day 21 of administration, compound A 50 mg/kg QD×21, compound B 30 mg/kg BID×21, cisplatin 5 mg/kg QW×3, paclitaxel 15 mg/kg QW×3) [%] | response [2] [%] |
| --- | --- | --- | --- | --- | --- | --- | --- |
| N#CC1(c2ccc(NC(=O)c3cccnc3NCc3ccncc3)cc2)CCCC1 [Compound A, Apatinib mesylate] | 0 | 185.4 ± 17.0 | 44.68 | 55.32 | 465.9 ± 17.0 | 55.32 | – |
| O=C(c1cc(Cc2n[nH]c(=O)c3ccccc23)ccc1F)N1CCN(C(=O)C2CC2)CC1 [Olaparib] | – | – | – | – | – | – | 88 |
